Here are results for 18 compounds from US20040224939A1, “Antibacterial agents” (priority 2003, published 2004).

For one experiment, the system named is H. influenzae H13542. The experiment can be described thus: Antibacterial assay (Test A), standard microtitration MIC, Gram negative. It counts as cell-based. The following applies: Gram Negative Bacteria, strain H13542; for MIC: Haemophilus influenzae, read-out: Minimum Inhibitory Concentrations, H. influenzae H13542. The method, then:
(§1) Test A—Antibacterial Assays
(§2) The compounds of the present invention were tested against an assortment of Gram-negative and Gram-positive organisms using standard microtitration techniques (Cohen et. al., Antimicrob., 1985;28:766; Heifetz, et. al., Antimicrob., 1974;6:124).

The next experiment concerns M. catarrhalis BC3534. The experiment is described as above. The following applies: Gram Negative Bacteria, strain BC3534; for MIC: Moraxella catarrhalis, read-out: Minimum Inhibitory Concentrations, M. catarrhalis BC3534. The experiment is classed as cell-based. The method, then: as §1, §2
For the next experiment, the system named is E. coli Tol C. Described as above. It counts as cell-based. The following applies: for MIC: Escherichia coli, read-out: Minimum Inhibitory Concentrations, E. coli Tol C. The method, then: as §1, §2
Another experiment relates to S pyogenes C203. The experiment can be described thus: Antibacterial assay (Test A), standard microtitration MIC, Gram positive. It counts as cell-based. The following applies: Gram Positive Bacteria, strain C203; for MIC: read-out: Minimum Inhibitory Concentrations, S pyogenes C203. The method, then:
as §1, §2

For the next experiment, the system named is E. faecalis MGH-2. The description is as above. The experiment is classed as cell-based. The following applies: Gram Positive Bacteria, strain MGH-2; for MIC: Enterococcus faecalis, MGH2, read-out: Minimum Inhibitory Concentrations, E. faecalis MGH-2. The method, then:
as §1, §2

A further experiment has as its system S. aureus UC-76. The experiment is described as above. The experiment is classed as cell-based. The following applies: Gram Positive Bacteria, strain UC-76; for MIC: Staphylococcus aureus, UC76, read-out: Minimum Inhibitory Concentrations, S. aureus UC-76. The method, then: as §1, §2
The subject of experiment [1] is E. coli transcription and translation (TnT), E. coli S30 fraction. The experiment can be described thus: E. coli transcription and translation (TnT) assay, cell free, luciferase luminescence.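 Also: printed under a heading of minimum inhibitory concentration in µg/mL.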 It counts as biochemical. The following applies: cell free E. coli S30, firefly luciferase plasmid pBESTluc, 20 minutes at room temperature.

In brackets after ≈: the same amount, converted by molar mass.

Turning to `CC(=O)NC[C@H]1CN(c2ccc3c(c2)CCN(C(=O)Cc2cccs2)CC3)C(=O)O1`, the MIC in the experiment with H. influenzae H13542 is more than 64 µg/mL; with M. catarrhalis BC3534, 16 µg/mL (≈ 37.4 µM); in the experiment with E. coli Tol C it was more than 64 µg/mL; in the experiment on S pyogenes C203, 0.125 µg/mL (≈ 0.292 µM); in the experiment on E. faecalis MGH-2, 0.25 µg/mL (≈ 0.585 µM); with S. aureus UC-76, 0.25 µg/mL (≈ 0.585 µM). Moreover, the “Inhibitory concentration in E. coli cell-free transcription/translation assay” value in experiment [1] came to 2.3 µg/mL.

For the compound `COC(=O)C1CCCc2cc(N3C[C@H](CNC(C)=O)OC3=O)ccc2C1=O` (stereo partly shown), the MIC in the experiment on H. influenzae H13542 was 32 µg/mL (≈ 85.5 µM); with M. catarrhalis BC3534, 16 µg/mL (≈ 42.7 µM); in the experiment with E. coli Tol C, more than 64 µg/mL; in the experiment on S pyogenes C203 it was 4 µg/mL (≈ 10.7 µM); with E. faecalis MGH-2, 2 µg/mL (≈ 5.34 µM); in the experiment on S. aureus UC-76, 4 µg/mL (≈ 10.7 µM). Moreover, the “Inhibitory concentration in E. coli cell-free transcription/translation assay” value in experiment [1] came to 4.7 µg/mL.

For `CC(=O)NCC1CN(c2ccc3c(c2)CC(=O)CCC3)C(=O)O1` (stereo not shown) [Example 5, N-[2-Oxo-3-(8-oxo-6,7,8,9-tetrahydro-5H-benzocyclohepten-2-yl)-oxazolidin-5-ylmethyl]-acetamide], the MIC is 64 µg/mL (≈ 202 µM) with H. influenzae H13542; 64 µg/mL (≈ 202 µM) with M. catarrhalis BC3534; more than 64 µg/mL in the experiment on E. coli Tol C; 8 µg/mL (≈ 25.3 µM) with S pyogenes C203; 16 µg/mL (≈ 50.6 µM) with E. faecalis MGH-2; 8 µg/mL (≈ 25.3 µM) in the experiment on S. aureus UC-76. Moreover, in experiment [1], the “Inhibitory concentration in E. coli cell-free transcription/translation assay” value turned out to be 2.3 µg/mL.

Consider `CC(=O)NCC1CN(c2ccc3c(c2)CCC(=O)CC3)C(=O)O1` (stereo not shown) [Example 4, N-[2-Oxo-3-(7-oxo-6,7,8,9-tetrahydro-5H-benzocyclohepten-2-yl)-oxazolidin-5-ylmethyl]-acetamide], for which the MIC is 64 µg/mL (≈ 202 µM) in the experiment on H. influenzae H13542; 32 µg/mL (≈ 101 µM) in the experiment on M. catarrhalis BC3534; more than 64 µg/mL with E. coli Tol C; 4 µg/mL (≈ 12.6 µM) in the experiment with S pyogenes C203; 8 µg/mL (≈ 25.3 µM) in the experiment on E. faecalis MGH-2; 4 µg/mL (≈ 12.6 µM) with S. aureus UC-76. The “Inhibitory concentration in E. coli cell-free transcription/translation assay” value in experiment [1] worked out at 8.2 µg/mL.

Take `CC(=O)NCC1CN(c2ccc3c(c2)OCCCC3=O)C(=O)O1` (stereo not shown) [Example 12, N-[2-Oxo-3-(5-oxo-2,3,4,5-tetrahydro-benzo[b]oxepin-8-yl)-oxazolidin-5-ylmethyl]-acetamide]: the MIC is 32 µg/mL (≈ 101 µM) in the experiment on H. influenzae H13542; 16 µg/mL (≈ 50.3 µM) in the experiment on M. catarrhalis BC3534; more than 64 µg/mL in the experiment with E. coli Tol C; 2 µg/mL (≈ 6.28 µM) with S pyogenes C203; 4 µg/mL (≈ 12.6 µM) with E. faecalis MGH-2; 8 µg/mL (≈ 25.1 µM) in the experiment on S. aureus UC-76. In experiment [1], the “Inhibitory concentration in E. coli cell-free transcription/translation assay” value turned out to be 1.1 µg/mL.

In the case of `CC(=O)NCC1CN(c2ccc3c(c2)CCCCC3=O)C(=O)O1` (stereo not shown) [Example 2, N-[2-Oxo-3-(5-oxo-6,7,8,9-tetrahydro-5H-benzocyclohepten-2-yl)-oxazolidin-5-ylmethyl]-acetamide], the MIC in the experiment on H. influenzae H13542 was 8 µg/mL (≈ 25.3 µM); in the experiment on M. catarrhalis BC3534 it was 4 µg/mL (≈ 12.6 µM); in the experiment with E. coli Tol C, more than 64 µg/mL; in the experiment with S pyogenes C203, more than 64 µg/mL; in the experiment on E. faecalis MGH-2, more than 64 µg/mL; in the experiment on S. aureus UC-76 it was more than 64 µg/mL. In addition, in experiment [1], the “Inhibitory concentration in E. coli cell-free transcription/translation assay” value came out at 3.9 µg/mL.

With `CC(=O)NC[C@H]1CN(c2ccc3c(c2)CCCCC3)C(=O)O1` [drawing 69], the MIC with H. influenzae H13542 was more than 64 µg/mL; in the experiment with M. catarrhalis BC3534, 16 µg/mL (≈ 52.9 µM); with E. coli Tol C, more than 64 µg/mL; in the experiment on S pyogenes C203, 2 µg/mL (≈ 6.61 µM); in the experiment with E. faecalis MGH-2, 4 µg/mL (≈ 13.2 µM); in the experiment with S. aureus UC-76, 2 µg/mL (≈ 6.61 µM).

Take `CC(=O)NCC1CN(c2ccc3c(c2)CCCC(=O)C3)C(=O)O1` (stereo not shown) [Example 7, N-[2-Oxo-3-(6-oxo-6,7,8,9-tetrahydro-5H-benzocyclohepten-2-yl)-oxazolidin-5-ylmethyl]-acetamide]: the MIC in the experiment with H. influenzae H13542 was 32 µg/mL (≈ 101 µM); in the experiment with M. catarrhalis BC3534, 32 µg/mL (≈ 101 µM); in the experiment with E. coli Tol C it was more than 64 µg/mL; in the experiment on S pyogenes C203, 2 µg/mL (≈ 6.32 µM); in the experiment on E. faecalis MGH-2, 4 µg/mL (≈ 12.6 µM); in the experiment on S. aureus UC-76 it was 4 µg/mL (≈ 12.6 µM). Besides, the “Inhibitory concentration in E. coli cell-free transcription/translation assay” value in experiment [1] was found to be 12 µg/mL.

For `CC(=O)NC[C@H]1CN(c2ccc3c(c2)CCC/C(=C\c2ccc(F)cc2)C3=O)C(=O)O1` [drawing 72], the MIC was 2 µg/mL (≈ 4.73 µM) in the experiment on H. influenzae H13542, 1 µg/mL (≈ 2.37 µM) in the experiment on M. catarrhalis BC3534 and more than 64 µg/mL with E. coli Tol C. Further, in experiment [1], the “Inhibitory concentration in E. coli cell-free transcription/translation assay” value was 1.4 µg/mL.

As for `CC(=O)NCC1CN(c2ccc3c(c2)CCCCN3)C(=O)O1` (stereo not shown) [Example 14, N-[2-Oxo-3-(2,3,4,5-tetrahydro-1H-benzo[b]azepin-7-yl)-oxazolidin-5-ylmethyl]-acetamide], the MIC in the experiment with H. influenzae H13542 is 64 µg/mL (≈ 211 µM); in the experiment with M. catarrhalis BC3534, more than 64 µg/mL; with E. coli Tol C, more than 64 µg/mL; in the experiment on S pyogenes C203 it was 16 µg/mL (≈ 52.7 µM); with E. faecalis MGH-2, 64 µg/mL (≈ 211 µM); with S. aureus UC-76, 32 µg/mL (≈ 105 µM).

Regarding “N-[2-Oxo-3-(2,3,4,5-tetrahydro-1H-benzo [c] azepin-7-yl)-oxazolidin-5-ylmethyl]-acetamide and N-[2-Oxo-3-(2,3,4,5-tetrahydro-1H-benzo[d]azepin-7-yl)-oxazolidin-5-ylmethyl]-acetamide [Example 15]”, the “Minimum Inhibitory Concentrations, H. influenzae H13542” value with H. influenzae H13542 is more than 64 µg/mL. Besides, the “Minimum Inhibitory Concentrations, M. catarrhalis BC3534” value in the experiment on M. catarrhalis BC3534 was more than 64 µg/mL. In the experiment with E. coli Tol C (Gram Negative Bacteria, strain Tol C), the “Minimum Inhibitory Concentrations, E. coli Tol C” value was more than 64 µg/mL. For the same compound, in the experiment with S pyogenes C203, the “Minimum Inhibitory Concentrations, S pyogenes C203” value was determined as 64 µg/mL. The “Minimum Inhibitory Concentrations, E. faecalis MGH-2” value with E. faecalis MGH-2 was determined as 64 µg/mL. Also, in the experiment on S. aureus UC-76, the “Minimum Inhibitory Concentrations, S. aureus UC-76” value stood at 64 µg/mL. The “Inhibitory concentration in E. coli cell-free transcription/translation assay” value in experiment [1] is 11 µg/mL.

For the compound `CC(=O)NC[C@H]1CN(c2ccc3c(c2)CCCC(Cc2ccsc2)C3=O)C(=O)O1` (stereo partly shown), the MIC is 2 µg/mL (≈ 4.85 µM) with H. influenzae H13542; 1 µg/mL (≈ 2.42 µM) in the experiment with M. catarrhalis BC3534; more than 64 µg/mL in the experiment on E. coli Tol C; 0.25 µg/mL (≈ 0.606 µM) in the experiment on S pyogenes C203; 0.5 µg/mL (≈ 1.21 µM) with E. faecalis MGH-2; 0.25 µg/mL (≈ 0.606 µM) with S. aureus UC-76. Moreover, in experiment [1], the “Inhibitory concentration in E. coli cell-free transcription/translation assay” value came out at 0.84 µg/mL.

On to `CC(=O)NCC1CN(c2ccc3c(c2)C=CCCC3)C(=O)O1` (stereo not shown) [Example 6, N-[3-(6,7-dihydro-5H-benzocyclohepten-2-yl)-2-oxo-oxazolidin-5-ylmethyl]acetamide], for which the MIC in the experiment with H. influenzae H13542 is more than 64 µg/mL; with M. catarrhalis BC3534, 32 µg/mL (≈ 107 µM); in the experiment with E. coli Tol C, more than 64 µg/mL; with S pyogenes C203, 2 µg/mL (≈ 6.66 µM); with E. faecalis MGH-2, 4 µg/mL (≈ 13.3 µM); in the experiment on S. aureus UC-76, 4 µg/mL (≈ 13.3 µM). For the same compound, the “Inhibitory concentration in E. coli cell-free transcription/translation assay” value in experiment [1] amounted to 15 µg/mL.

`CC(=O)NC[C@H]1CN(c2ccc3c(c2)CCC/C(=C\c2ccncc2)C3=O)C(=O)O1` [drawing 72]: the MIC in the experiment on S pyogenes C203, with E. faecalis MGH-2 and in the experiment with S. aureus UC-76 was 1 µg/mL (≈ 2.47 µM) throughout.

Turning to `CC(=O)NC[C@H]1CN(c2ccc3c(c2)CCC/C(=C\c2ccc(F)cc2)C3=O)C(=O)O1` [drawing 73], the MIC with S pyogenes C203, in the experiment with E. faecalis MGH-2 and in the experiment with S. aureus UC-76 was 0.5 µg/mL (≈ 1.18 µM) in each case.

Consider `CC(=O)NC[C@H]1CN(c2ccc3c(c2)CCCCC3)C(=O)O1` [drawing 70], for which the “Inhibitory concentration in E. coli cell-free transcription/translation assay” value in experiment [1] turned out to be 6.6 µg/mL.

On to `CC(=O)NC[C@H]1CN(c2ccc3c(c2)CCC/C(=C\c2ccncc2)C3=O)C(=O)O1` [drawing 73], for which the MIC with H. influenzae H13542 was 16 µg/mL (≈ 39.5 µM); in the experiment with M. catarrhalis BC3534, 8 µg/mL (≈ 19.7 µM); in the experiment on E. coli Tol C, more than 64 µg/mL. In addition, in experiment [1], the “Inhibitory concentration in E. coli cell-free transcription/translation assay” value worked out at 2.7 µg/mL.

As to `CC(=O)NC[C@H]1CN(c2ccc3c(c2)C=CCCC3)C(=O)O1`, the MIC in the experiment with H. influenzae H13542 was more than 64 µg/mL; in the experiment on M. catarrhalis BC3534 it was 32 µg/mL (≈ 107 µM); in the experiment with E. coli Tol C, more than 64 µg/mL; with S pyogenes C203 it was 2 µg/mL (≈ 6.66 µM); in the experiment with E. faecalis MGH-2 it was 4 µg/mL (≈ 13.3 µM); in the experiment on S. aureus UC-76, 4 µg/mL (≈ 13.3 µM).
